Results on 26 compounds are retold here after patent publication US12583820B2, “Broad spectrum antivirals against coronavirus” (priority 2020, dated 2026).

Series [1] in a line: Nonspecific cytotoxic effects (CC50), CytoTox 96 kit.
The target of series [2] is T1, 3CLpro of SARS-CoV-2 (Severe acute respiratory syndrome coronavirus 2, UniProt P0DTD1).
T1 construct: The codon-optimized cDNA of full length of 3CLpro of SARS-CoV-2; 6xHis (N); made in house; pET-28a(+) vector (points to E. coli, my inference)
Briefly: biochemical. The series is classed as biochemical.

Where two headings read alike, the source gives them in different places.

In the case of `CC(C)C[C@H](NC(=O)OC1CCC(C)(C)CC1)C(=O)N[C@H](C=O)C[C@@H]1CCNC1=O` [Compound 1b, 4,4-Dimethylcyclohexyl ((S)-4-methyl-1-oxo-1-(((S)-1-oxo-3-((S)-2-oxopyrrolidin-3-yl)propan-2-yl)amino)pentan-2-yl)carbamate], the CC50 at 72 h in series [1] is above 100 µM. This compound also yielded an IC50 in series [2] of 280 nM.
Consider `CC(C)C[C@H](NC(=O)O[C@H]1CC[C@H](C(C)C)CC1)C(=O)N[C@H](C=O)C[C@@H]1CCNC1=O` [Compound 2b, (1r,4S)-4-isopropylcyclohexyl ((S)-4-methyl-1-oxo-1-(((S)-1-oxo-3-((S)-2-oxopyrrolidin-3-yl)propan-2-yl)amino)pentan-2-yl)carbamate], for which, in series [1], the CC50 at 72 h is above 100 µM. The IC50 in series [2] was 250 nM.
With `CC(C)CC(NC(=O)OC1CCC(C(C)C)CC1)C(=O)NC(CC1CCNC1=O)C(O)S(=O)(=O)O` [Compound 2c, Sodium (2S)-1-hydroxy-2-((S)-2-(((((1r,4S)-4-isopropylcyclohexyl)oxy)carbonyl)amino)-4-methylpentanamido)-3-((S)-2-oxopyrrolidin-3-yl)propane-1-sulfonate], the CC50 at 72 h in series [1] was above 100 µM. Further, it took 230 nM to reach half-maximal inhibition in series [2] (IC50).
In series [1], `CCCC1CCC(OC(=O)NC(CC(C)C)C(=O)NC(C=O)CC2CCNC2=O)CC1` [Compound 3b, (1s,4S)-4-propylcyclohexyl ((S)-4-methyl-1-oxo-1-(((S)-1-oxo-3-((S)-2-oxopyrrolidin-3-yl)propan-2-yl)amino)pentan-2-yl)carbamate] displayed a cytotoxic concentration (CC50) at 72 h above 100 µM. In series [2], this compound yielded an IC50 of 260 nM.
Turning to `CCCCC1CCC(OC(=O)NC(CC(C)C)C(=O)NC(C=O)CC2CCNC2=O)CC1` [Compound 4b, (1s,4S)-4-Butylcyclohexyl ((S)-4-methyl-1-oxo-1-(((S)-1-oxo-3-((S)-2-oxopyrrolidin-3-yl)propan-2-yl)amino)pentan-2-yl)carbamate], the CC50 at 72 h in series [1] was above 100 µM. The IC50 in series [2] came to 160 nM.
As to `CCCC1CCC(COC(=O)NC(CC(C)C)C(=O)NC(C=O)CC2CCNC2=O)CC1` [Compound 8b, ((1r,4R)-4-Propylcyclohexyl) methyl ((2S)-4-methyl-1-oxo-1-(((2S)-1-oxo-3-(2-oxopyrrolidin-3-yl)propan-2-yl)amino)pentan-2-yl) carbamate], the CC50 at 72 h in series [1] was above 100 µM. Besides, in series [2], the IC50 amounted to 220 nM.
`CC(C)C[C@H](NC(=O)OCC1CCC(F)(F)CC1)C(=O)N[C@H](C=O)C[C@@H]1CCNC1=O` [Compound 10b, (4,4-Difluorocyclohexyl)methyl ((S)-4-methyl-1-oxo-1-(((S)-1-oxo-3-((S)-2-oxopyrrolidin-3-yl)propan-2-yl)amino)pentan-2-yl)carbamate] registered a 50% cytotoxic concentration (CC50) at 72 h in series [1] above 100 µM.
`CC(C)C[C@H](NC(=O)OCC1CCC(F)(F)CC1)C(=O)N[C@@H](C[C@@H]1CCNC1=O)C(O)S(=O)(=O)O` (stereo partly drawn) [Compound 10c, Sodium (2S)-2-((S)-2-((((4,4-difluorocyclohexyl)methoxy)carbonyl)amino)-4-methylpentanamido)-1-hydroxy-3-((S)-2-oxopyrrolidin-3-yl)propane-1-sulfonate] registered a 50% cytotoxic concentration (CC50) at 72 h in series [1] above 100 µM. In addition, the IC50 in series [2] (read-out: IC50) was 450 nM.
In turn, `[2H]C([2H])(OC(=O)N[C@@H](CC(C)C)C(=O)N[C@H](C=O)CC1CCNC1=O)C1CCC(F)(F)CC1` (stereo partly drawn) [Compound 11b, (4,4-Difluorocyclohexyl) methyl-d2 ((2S)-4-methyl-1-oxo-1-(((2S)-1-oxo-3-(2-oxopyrrolidin-3-yl)propan-2-yl)amino)pentan-2-yl) carbamate] had a CC50 at 72 h in series [1] above 100 µM.
In series [1], `CC(C)C[C@H](NC(=O)OC(C)C1CCC(F)(F)CC1)C(=O)N[C@H](C=O)C[C@@H]1CCNC1=O` (stereo partly drawn) [Compound 12b, 1-(4,4-Difluorocyclohexyl)ethyl ((S)-4-methyl-1-oxo-1-(((S)-1-oxo-3-((S)-2-oxopyrrolidin-3-yl)propan-2-yl)amino)pentan-2-yl)carbamate] registered a CC50 at 72 h above 100 µM. This compound also registered an IC50 in series [2] of 210 nM.
On to `CC(C)C[C@H](NC(=O)OC(C)(C)C1CCC(F)(F)CC1)C(=O)N[C@H](C=O)C[C@@H]1CCNC1=O` [Compound 13b, 2-(4,4-Difluorocyclohexyl)propan-2-yl ((S)-4-methyl-1-oxo-1-(((S)-1-oxo-3-((S)-2-oxopyrrolidin-3-yl)propan-2-yl)amino)pentan-2-yl)carbamate], for which the CC50 at 72 h in series [1] is above 100 µM. In series [2], inhibition was half-maximal at 800 nM (IC50).
Compound `CC(C)C[C@H](NC(=O)OC(C)(C)C1CCC(F)(F)CC1)C(=O)N[C@@H](C[C@@H]1CCNC1=O)C(O)S(=O)(=O)[O-].[Na+]` (stereo partly drawn) [Compound 13c, Sodium (2S)-2-((S)-2-((((2-(4,4-difluorocyclohexyl)propan-2-yl)oxy)carbonyl)amino)-4-methylpentanamido)-1-hydroxy-3-((S)-2-oxopyrrolidin-3-yl)propane-1-sulfonate] had a cytotoxic concentration (CC50) at 72 h in series [1] above 100 µM. Besides, in series [2], the IC50 came out at 900 nM; the “fold higher IC50 than those of 12b and 14c” value was around 4 fold.
In turn, `CC(C)C[C@H](NC(=O)OC(Cc1ccccc1)C1CCC(F)(F)CC1)C(=O)N[C@H](C=O)C[C@@H]1CCNC1=O` (stereo partly drawn) [Compound 14b, 1-(4,4-Difluorocyclohexyl)-2-phenylethyl ((S)-4-methyl-1-oxo-1-(((S)-1-oxo-3-((S)-2-oxopyrrolidin-3-yl)propan-2-yl)amino)pentan-2-yl)carbamate] returned a CC50 at 72 h in series [1] above 100 µM. Besides, in series [2], the IC50 came to 230 nM.
In series [1], `CC(C)C[C@H](NC(=O)OC(c1ccccc1)C1CCC(F)(F)CC1)C(=O)N[C@H](C=O)C[C@@H]1CCNC1=O` (stereo partly drawn) [Compound 15b, (4,4-Difluorocyclohexyl)(phenyl)methyl ((S)-4-methyl-1-oxo-1-(((S)-1-oxo-3-((S)-2-oxopyrrolidin-3-yl)propan-2-yl)amino)pentan-2-yl)carbamate] came in with a CC50 at 72 h above 100 µM. Further, the IC50 in series [2] is 100 nM.
With `CC(C)C[C@H](NC(=O)OC(c1ccccc1)C1CCC(F)(F)CC1)C(=O)N[C@@H](C[C@@H]1CCNC1=O)C(O)S(=O)(=O)O` (stereo partly drawn) [Compound 15c, Sodium (2S)-2-((2S)-2-((((4,4-difluorocyclohexyl)(phenyl)methoxy)carbonyl)amino)-4-methylpentanamido)-1-hydroxy-3-((S)-2-oxopyrrolidin-3-yl)propane-1-sulfonate], in series [1], the CC50 at 72 h is above 100 µM. The compound also showed an IC50 in series [2] of 160 nM.
Regarding `CCCCC(OC(=O)N[C@@H](CC(C)C)C(=O)N[C@H](C=O)C[C@@H]1CCNC1=O)C1CCC(F)(F)CC1` (stereo partly drawn) [Compound 16b, 1-(4,4-Difluorocyclohexyl)pentyl ((S)-4-methyl-1-oxo-1-(((S)-1-oxo-3-((S)-2-oxopyrrolidin-3-yl)propan-2-yl)amino)pentan-2-yl)carbamate], the 50% cytotoxic concentration (CC50) at 72 h in series [1] was above 100 µM. In series [2], this compound returned an IC50 of 160 nM.
`CCCCC(OC(=O)N[C@@H](CC(C)C)C(=O)N[C@@H](C[C@@H]1CCNC1=O)C(O)S(=O)(=O)O)C1CCC(F)(F)CC1` (stereo partly drawn) [Compound 16c, Sodium (2S)-2-((2S)-2-((((1-(4,4-difluorocyclohexyl)pentyl)oxy)carbonyl)amino)-4-methylpentanamido)-1-hydroxy-3-((S)-2-oxopyrrolidin-3-yl)propane-1-sulfonate] yielded a CC50 at 72 h in series [1] above 100 µM. The same compound came in with an IC50 in series [2] of 250 nM.
The compound `CC(C)C[C@H](NC(=O)OCc1ccccc1F)C(=O)N[C@H](C=O)C[C@@H]1CCNC1=O` [Compound 17b, 2-Fluorobenzyl ((S)-4-methyl-1-oxo-1-(((S)-1-oxo-3-((S)-2-oxopyrrolidin-3-yl)propan-2-yl)amino)pentan-2-yl)carbamate] came in with a CC50 at 72 h in series [1] above 100 µM. For the same compound, the IC50 in series [2] is 380 nM.
Compound `CC(C)C[C@H](NC(=O)OCc1ccc(F)cc1)C(=O)N[C@H](C=O)C[C@@H]1CCNC1=O` [Compound 19b, 4-Fluorobenzyl ((S)-4-methyl-1-oxo-1-(((S)-1-oxo-3-((S)-2-oxopyrrolidin-3-yl)propan-2-yl)amino)pentan-2-yl)carbamate] came in with a half-maximal cytotoxic concentration (CC50) at 72 h in series [1] above 100 µM.
On the same count and under the same terms, the result for `[2H]C([2H])(OC(=O)N[C@@H](CC(C)C)C(=O)N[C@H](C=O)C[C@@H]1CCNC1=O)c1ccc(F)cc1` [Compound 20b, (4-Fluorophenyl)methyl-d2 ((S)-4-methyl-1-oxo-1-(((S)-1-oxo-3-((S)-2-oxopyrrolidin-3-yl)propan-2-yl)amino)pentan-2-yl)carbamate] reads above 100 µM; that for `[2H]C([2H])(OC(=O)N[C@@H](CC(C)C)C(=O)N[C@@H](C[C@@H]1CCNC1=O)C(O)S(=O)(=O)[O-])c1ccc(F)cc1.[Na+]` (stereo partly drawn) [Compound 20c, Sodium (2S)-2-((S)-2-((((4-fluorophenyl)methoxy-d2)carbonyl)amino)-4-methylpentan amido)-1-hydroxy-3-((S)-2-oxopyrrolidin-3-yl)propane-1-sulfonate], above 100 µM.
In series [1], `CC(C)C[C@H](NC(=O)OCc1c(F)c(F)c(F)c(F)c1F)C(=O)N[C@H](C=O)CC1CCNC1=O` (stereo partly drawn) [Compound 21b, (Perfluorophenyl)methyl ((2S)-4-methyl-1-oxo-1-(((2S)-1-oxo-3-(2-oxopyrrolidin-3-yl)propan-2-yl)amino)pentan-2-yl) carbamate] showed a half-maximal cytotoxic concentration (CC50) at 72 h above 100 µM.
`CC(C)CC(NC(=O)OCC1C(c2ccccc2)C1(F)F)C(=O)NC(C=O)CC1CCNC1=O` (stereo not shown) [GC1269] gave an IC50 in series [2] of 140 nM.
As for `CC(C)CC(NC(=O)OCC1C(c2ccccc2)C1(F)F)C(=O)NC(CC1CCNC1=O)C(O)S(=O)(=O)O` (stereo not shown) [GC1270], the IC50 in series [2] amounted to 160 nM.
`CC(C)C[C@H](NC(=O)OCC(C)(C)Oc1ccc(Cl)cc1)C(=O)N[C@H](C=O)CC1CCNC1=O` (stereo partly shown) [MM-II-42] came in with an IC50 in series [2] of 260 nM.
On to `CC(C)C[C@H](NC(=O)OCC(C)(C)Oc1ccc(Cl)cc1)C(=O)N[C@@H](CC1CCNC1=O)C(O)S(=O)(=O)O` (stereo partly shown) [MM-II-43], for which, in series [2], half-maximal inhibition (IC50) was put at 240 nM.

Broadly, the CC50 is the concentration giving 50% cytotoxicity. A lower CC50 goes with greater toxicity to the cells. What is called IC50 is the concentration that inhibits the measured activity by half.
